Measured values reported in ChEMBL document CHEMBL1909046, “DrugMatrix in vitro pharmacology data”.

Tests used:
[1] = molecular target: Receptor tyrosine-protein kinase erbB-2 (Homo sapiens, UniProt P04626); experiment: biochemical; format: cell-based, Insect cells; details: insect cells;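 note: inhibition of HER2 kinase enzyme activity, measured with Poly(Glu:Tyr) as the phosphorylation substrate; in other assays of this panel Not Active means under 50% inhibition at 10 µM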
Cytochrome P450 2E1 = Cytochrome P450 2E1 (Homo sapiens, UniProt P05181); details: bti-tn-5b1-4; note: in other assays of this panel Not Active means under 50% inhibition at 10 µM
[2] = molecular target: T1, Vasoactive intestinal polypeptide receptor 1 (Homo sapiens, UniProt P32241); format: cell membranes, Membrane; details: ht-29; note: in other assays of this panel Not Active means under 50% inhibition at 10 µM
T1 sequence (P32241 whole entry): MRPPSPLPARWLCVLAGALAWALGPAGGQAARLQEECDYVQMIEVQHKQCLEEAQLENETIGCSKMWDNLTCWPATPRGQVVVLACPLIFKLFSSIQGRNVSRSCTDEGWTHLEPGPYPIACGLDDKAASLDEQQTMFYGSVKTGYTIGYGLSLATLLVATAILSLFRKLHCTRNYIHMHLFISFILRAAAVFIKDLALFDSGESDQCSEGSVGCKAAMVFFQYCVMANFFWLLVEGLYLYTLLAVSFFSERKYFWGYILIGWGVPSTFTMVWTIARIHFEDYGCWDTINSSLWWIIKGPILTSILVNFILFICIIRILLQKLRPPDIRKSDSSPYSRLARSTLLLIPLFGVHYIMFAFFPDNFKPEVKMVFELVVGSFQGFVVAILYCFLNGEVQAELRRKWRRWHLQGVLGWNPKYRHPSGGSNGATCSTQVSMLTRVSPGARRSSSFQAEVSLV

[3] = molecular target: Beta-2 adrenergic receptor (Homo sapiens, UniProt P07550); experiment: DRUGMATRIX: Adrenergic beta2 radioligand binding (ligand: [3H] CGP-12177); format: cell membranes, CHO, Membrane; details: cho; Not Active = under 50% inhibition at 10 µM
[4] = molecular target: Protein kinase C alpha type (Homo sapiens, UniProt P17252); format: cell-based; details: sf9;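 note: inhibition of PKCalpha kinase activity measured in an enzyme assay with histone as the phosphorylation substrate; in other assays of this panel Not Active means under 50% inhibition at 10 µM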
[5] = molecular target: Beta-3 adrenergic receptor (Homo sapiens, UniProt P13945); experiment: DRUGMATRIX: Adrenergic beta3 radioligand binding (ligand: [125I] Cyanopindolol); format: cell membranes, HEK293, Membrane; details: hek293; Not Active = under 50% inhibition at 10 µM
Thromboxane-A synthase = molecular target: T2, Thromboxane-A synthase (Homo sapiens, UniProt P24557); experiment: biochemical; format: tissue-based, Platelet; details: platelet
T2 sequence (P24557 whole entry): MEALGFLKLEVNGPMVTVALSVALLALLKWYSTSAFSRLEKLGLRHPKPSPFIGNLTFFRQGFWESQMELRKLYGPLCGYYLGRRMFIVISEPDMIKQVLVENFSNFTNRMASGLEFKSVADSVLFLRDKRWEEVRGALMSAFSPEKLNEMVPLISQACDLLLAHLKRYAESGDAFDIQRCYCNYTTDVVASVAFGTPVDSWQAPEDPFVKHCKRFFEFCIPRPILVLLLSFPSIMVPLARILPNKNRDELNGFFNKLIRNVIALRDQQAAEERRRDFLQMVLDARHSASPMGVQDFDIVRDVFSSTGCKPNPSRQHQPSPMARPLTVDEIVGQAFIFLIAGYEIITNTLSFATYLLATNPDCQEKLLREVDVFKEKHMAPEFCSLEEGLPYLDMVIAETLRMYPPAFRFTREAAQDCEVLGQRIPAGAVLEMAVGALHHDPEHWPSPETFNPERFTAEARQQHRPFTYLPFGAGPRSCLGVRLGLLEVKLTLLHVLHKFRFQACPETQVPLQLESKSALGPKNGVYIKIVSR

Beta-3 adrenergic receptor, sequence (P13945 whole entry): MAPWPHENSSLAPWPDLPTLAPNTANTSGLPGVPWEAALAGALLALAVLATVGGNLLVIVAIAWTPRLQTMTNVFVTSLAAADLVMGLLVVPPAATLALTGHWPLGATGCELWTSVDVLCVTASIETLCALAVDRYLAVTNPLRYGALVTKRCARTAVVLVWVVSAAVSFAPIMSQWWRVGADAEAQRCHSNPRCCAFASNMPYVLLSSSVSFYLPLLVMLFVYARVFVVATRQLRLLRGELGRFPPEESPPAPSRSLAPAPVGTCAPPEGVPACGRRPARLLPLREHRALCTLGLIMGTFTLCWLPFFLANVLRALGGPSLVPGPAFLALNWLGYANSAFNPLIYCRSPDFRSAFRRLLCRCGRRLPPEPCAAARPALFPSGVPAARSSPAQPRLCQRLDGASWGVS
Receptor tyrosine-protein kinase erbB-2, sequence (P04626 whole entry): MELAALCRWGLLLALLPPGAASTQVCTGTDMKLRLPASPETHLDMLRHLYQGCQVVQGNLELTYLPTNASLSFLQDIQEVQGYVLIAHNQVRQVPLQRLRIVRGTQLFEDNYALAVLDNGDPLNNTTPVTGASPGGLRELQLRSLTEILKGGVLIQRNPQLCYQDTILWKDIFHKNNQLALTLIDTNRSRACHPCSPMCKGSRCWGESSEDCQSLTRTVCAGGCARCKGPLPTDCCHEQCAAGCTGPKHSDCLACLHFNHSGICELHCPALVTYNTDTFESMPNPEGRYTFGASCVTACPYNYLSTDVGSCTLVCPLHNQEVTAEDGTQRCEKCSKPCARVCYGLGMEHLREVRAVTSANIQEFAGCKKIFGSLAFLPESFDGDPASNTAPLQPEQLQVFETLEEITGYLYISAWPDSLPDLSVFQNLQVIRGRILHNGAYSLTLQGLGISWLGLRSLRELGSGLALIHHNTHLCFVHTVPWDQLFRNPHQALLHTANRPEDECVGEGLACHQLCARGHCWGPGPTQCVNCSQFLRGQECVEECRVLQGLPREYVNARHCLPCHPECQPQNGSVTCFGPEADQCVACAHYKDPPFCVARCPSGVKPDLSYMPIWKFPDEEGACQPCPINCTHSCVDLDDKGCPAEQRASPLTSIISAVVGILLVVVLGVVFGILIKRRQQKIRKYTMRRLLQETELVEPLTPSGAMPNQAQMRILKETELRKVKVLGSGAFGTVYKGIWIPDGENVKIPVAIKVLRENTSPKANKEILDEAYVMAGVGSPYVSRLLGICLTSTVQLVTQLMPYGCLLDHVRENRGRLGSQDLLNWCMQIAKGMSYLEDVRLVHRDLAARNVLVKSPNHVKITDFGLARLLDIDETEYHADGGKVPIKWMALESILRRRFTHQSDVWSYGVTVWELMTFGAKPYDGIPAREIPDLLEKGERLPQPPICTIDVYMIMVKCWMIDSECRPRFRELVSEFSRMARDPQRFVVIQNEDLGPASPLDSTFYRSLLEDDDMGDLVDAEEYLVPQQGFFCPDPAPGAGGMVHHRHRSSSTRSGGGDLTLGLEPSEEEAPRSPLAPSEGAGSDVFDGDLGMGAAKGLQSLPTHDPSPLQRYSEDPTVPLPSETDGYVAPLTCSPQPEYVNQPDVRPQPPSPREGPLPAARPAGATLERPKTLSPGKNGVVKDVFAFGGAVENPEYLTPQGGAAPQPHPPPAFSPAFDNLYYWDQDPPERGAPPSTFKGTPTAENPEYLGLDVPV
Beta-2 adrenergic receptor, sequence (P07550 whole entry): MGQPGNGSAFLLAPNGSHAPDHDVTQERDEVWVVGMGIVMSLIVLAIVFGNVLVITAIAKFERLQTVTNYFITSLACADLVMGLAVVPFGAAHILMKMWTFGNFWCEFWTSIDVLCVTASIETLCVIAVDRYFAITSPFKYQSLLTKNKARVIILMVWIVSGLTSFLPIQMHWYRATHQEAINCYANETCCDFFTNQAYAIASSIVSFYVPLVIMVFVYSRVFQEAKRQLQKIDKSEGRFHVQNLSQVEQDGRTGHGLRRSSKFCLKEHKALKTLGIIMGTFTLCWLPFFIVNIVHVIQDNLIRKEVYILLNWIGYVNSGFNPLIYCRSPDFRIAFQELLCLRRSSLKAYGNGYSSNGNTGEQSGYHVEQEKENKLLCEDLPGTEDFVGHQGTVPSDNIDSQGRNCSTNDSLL
Cytochrome P450 2E1, sequence (P05181 whole entry): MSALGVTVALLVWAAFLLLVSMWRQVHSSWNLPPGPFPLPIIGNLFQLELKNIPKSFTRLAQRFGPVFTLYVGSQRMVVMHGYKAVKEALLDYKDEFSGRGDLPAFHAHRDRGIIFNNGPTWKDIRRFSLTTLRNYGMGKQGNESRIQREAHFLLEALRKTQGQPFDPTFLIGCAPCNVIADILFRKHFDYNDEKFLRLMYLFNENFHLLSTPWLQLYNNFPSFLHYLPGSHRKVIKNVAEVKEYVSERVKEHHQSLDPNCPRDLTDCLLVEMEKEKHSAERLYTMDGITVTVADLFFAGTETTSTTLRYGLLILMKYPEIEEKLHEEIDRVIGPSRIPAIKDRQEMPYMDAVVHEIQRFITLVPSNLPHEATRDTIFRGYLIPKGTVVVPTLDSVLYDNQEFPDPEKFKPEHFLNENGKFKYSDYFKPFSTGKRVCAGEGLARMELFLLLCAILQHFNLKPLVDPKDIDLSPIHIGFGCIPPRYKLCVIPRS

CC(O)COC[C@H]1O[C@@H]2O[C@H]3[C@H](O)[C@@H](O)[C@@H](O[C@H]4[C@H](O)[C@@H](O)[C@@H](O[C@H]5[C@H](O)[C@@H](O)[C@@H](O[C@H]6[C@H](O)[C@@H](O)[C@@H](O[C@H]7[C@H](O)[C@@H](O)[C@@H](O[C@H]8[C@H](O)[C@@H](O)[C@@H](O[C@H]1[C@H](O)[C@H]2O)O[C@@H]8COCC(C)O)O[C@@H]7COCC(C)O)O[C@@H]6COCC(C)O)O[C@@H]5COCC(C)O)O[C@@H]4COCC(C)O)O[C@@H]3COCC(C)O (stereo partly drawn) [2-HYDROXYPROPYL-BETA-CYCLODEXTRIN]
Not Active: IC50 [1] | IC50 (Cytochrome P450 2E1) | Ki (Cytochrome P450 2E1) | IC50 [2] | IC50 [3] | IC50 [4] | IC50 [5] | IC50 (Thromboxane-A synthase)

NC(=O)c1cccc(N)c1 [3-AMINOBENZAMIDE]
Not Active: IC50 [1] | IC50 (Cytochrome P450 2E1) | Ki (Cytochrome P450 2E1) | IC50 [2] | IC50 [3] | IC50 [4] | IC50 [5] | IC50 (Thromboxane-A synthase)

C[C@H]1O[C@H](O[C@H]2[C@H](O)[C@@H](O)[C@@H](O[C@H]3[C@H](O)[C@@H](O)C(O)O[C@@H]3CO)O[C@@H]2CO)[C@H](O)[C@@H](O)[C@@H]1N[C@H]1C=C(CO)[C@@H](O)[C@H](O)[C@H]1O (some centres not stated) [ACARBOSE]
Not Active: IC50 [1] | IC50 (Cytochrome P450 2E1) | Ki (Cytochrome P450 2E1) | IC50 [2] | IC50 [3] | IC50 [4] | IC50 [5] | IC50 (Thromboxane-A synthase)

CC[C@H]1[C@@H]2C[C@H]3[C@@H]4N(C)c5ccccc5[C@]45C[C@@H]([C@@H]2[C@H]5O)N3[C@@H]1O [AJMALINE]
Not Active: IC50 [1] | IC50 (Cytochrome P450 2E1) | Ki (Cytochrome P450 2E1) | IC50 [2] | IC50 [3] | IC50 [4] | IC50 [5] | IC50 (Thromboxane-A synthase)

NCCCNCCSP(=O)(O)O [AMIFOSTINE]
Not Active: IC50 [1] | IC50 (Cytochrome P450 2E1) | Ki (Cytochrome P450 2E1) | IC50 [2] | IC50 [3] | IC50 [4] | IC50 [5] | IC50 (Thromboxane-A synthase)

CN(C)CCC=C1c2ccccc2CCc2ccccc21 [AMITRIPTYLINE]
Not Active: IC50 [1] | IC50 (Cytochrome P450 2E1) | Ki (Cytochrome P450 2E1) | IC50 [2] | IC50 [3] | IC50 [4] | IC50 [5] | IC50 (Thromboxane-A synthase)

CC(=O)Oc1ccccc1C(=O)O [ASPIRIN]
Not Active: IC50 [1] | IC50 (Cytochrome P450 2E1) | Ki (Cytochrome P450 2E1) | IC50 [2] | IC50 [3] | IC50 [4] | IC50 [5] | IC50 (Thromboxane-A synthase)

CC(C)c1c(C(=O)Nc2ccccc2)c(-c2ccccc2)c(-c2ccc(F)cc2)n1CC[C@@H](O)C[C@@H](O)CC(=O)O [ATORVASTATIN]
Not Active: IC50 [1] | IC50 (Cytochrome P450 2E1) | Ki (Cytochrome P450 2E1) | IC50 [2] | IC50 [3] | IC50 [4] | IC50 [5] | IC50 (Thromboxane-A synthase)

CC(=O)OC[C@H]1O[C@@H](n2ncc(=O)[nH]c2=O)[C@H](OC(C)=O)[C@@H]1OC(C)=O [AZARIBINE]
Not Active: IC50 [1] | IC50 (Cytochrome P450 2E1) | Ki (Cytochrome P450 2E1) | IC50 [2] | IC50 [3] | IC50 [4] | IC50 [5] | IC50 (Thromboxane-A synthase)

C[C@H]1[C@H](NC(=O)/C(=N\OC(C)(C)C(=O)O)c2csc(N)n2)C(=O)N1S(=O)(=O)O [AZTREONAM]
Not Active: IC50 [1] | IC50 (Cytochrome P450 2E1) | Ki (Cytochrome P450 2E1) | IC50 [2] | IC50 [3] | IC50 [4] | IC50 [5] | IC50 (Thromboxane-A synthase)

O=C(O)CCNC(=O)c1ccc(/N=N/c2ccc(O)c(C(=O)O)c2)cc1 [BALSALAZIDE]
Not Active: IC50 [1] | IC50 (Cytochrome P450 2E1) | Ki (Cytochrome P450 2E1) | IC50 [2] | IC50 [3] | IC50 [4] | IC50 [5] | IC50 (Thromboxane-A synthase)

COc1cc(OC)c(C(=O)CCCN2CCCC2)c(OC)c1 [BUFLOMEDIL]
Not Active: IC50 [1] | IC50 (Cytochrome P450 2E1) | Ki (Cytochrome P450 2E1) | IC50 [2] | IC50 [3] | IC50 [4] | IC50 [5] | IC50 (Thromboxane-A synthase)

Cn1c(=O)c2c(ncn2C)n(C)c1=O [CAFFEINE]
Not Active: IC50 [1] | IC50 (Cytochrome P450 2E1) | Ki (Cytochrome P450 2E1) | IC50 [2] | IC50 [3] | IC50 [4] | IC50 [5] | IC50 (Thromboxane-A synthase)

CO/N=C(\C(=O)N[C@@H]1C(=O)N2C(C(=O)O)=C(COC(C)=O)CS[C@H]12)c1csc(N)n1 [CEFOTAXIME]
Not Active: IC50 [1] | IC50 (Cytochrome P450 2E1) | Ki (Cytochrome P450 2E1) | IC50 [2] | IC50 [3] | IC50 [4] | IC50 [5] | IC50 (Thromboxane-A synthase)

CNC1=Nc2ccc(Cl)cc2C(c2ccccc2)=[N+]([O-])C1 [CHLORDIAZEPOXIDE]
Not Active: IC50 [1] | IC50 (Cytochrome P450 2E1) | Ki (Cytochrome P450 2E1) | IC50 [2] | IC50 [3] | IC50 [4] | IC50 [5] | IC50 (Thromboxane-A synthase)

Cc1cc(O)cc(C)c1Cl [CHLOROXYLENOL]
Not Active: IC50 [1] | IC50 (Cytochrome P450 2E1) | Ki (Cytochrome P450 2E1) | IC50 [2] | IC50 [3] | IC50 [4] | IC50 [5] | IC50 (Thromboxane-A synthase)

CCCNC(=O)NS(=O)(=O)c1ccc(Cl)cc1 [CHLORPROPAMIDE]
Not Active: IC50 [1] | IC50 (Cytochrome P450 2E1) | Ki (Cytochrome P450 2E1) | IC50 [2] | IC50 [3] | IC50 [4] | IC50 [5] | IC50 (Thromboxane-A synthase)

NS(=O)(=O)c1cc(C2(O)NC(=O)c3ccccc32)ccc1Cl (configuration not stated) [CHLORTHALIDONE]
Not Active: IC50 [1] | IC50 (Cytochrome P450 2E1) | Ki (Cytochrome P450 2E1) | IC50 [2] | IC50 [3] | IC50 [4] | IC50 [5] | IC50 (Thromboxane-A synthase)

O=C(O)CC(O)(CC(=O)O)C(=O)O [CITRIC ACID]
Not Active: IC50 [1] | IC50 (Cytochrome P450 2E1) | Ki (Cytochrome P450 2E1) | IC50 [2] | IC50 [3] | IC50 [4] | IC50 [5] | IC50 (Thromboxane-A synthase)
